Tests used:
A549 = assay: Inhibitory concentration value against human A-549 tumor cell line; format: functional, cell-based
P388 = assay: Inhibitory concentration value against murine P-388 tumor cell line; format: functional, cell-based; settings: Mus musculus
[1] = Inhibitory concentration value against human MEL-28 or human cancer HeLa tumor cell line; format: functional, cell-based
HL-60 = assay: Inhibitory concentration value against human colon carcinoma H-116 or human cancer HL-60 tumor cell line; format: functional, cell-based
HT-29 = assay: Inhibitory concentration value against human colon adenocarcinoma HT-29 tumor cell line; format: functional, cell-based
Tubulin beta chain = Tubulin beta chain (Bos taurus, UniProt Q6B856); assay: In vitro inhibitory concentration value against bovine brain tubulin polymerization
Sequence of Tubulin beta chain (Q6B856 whole entry): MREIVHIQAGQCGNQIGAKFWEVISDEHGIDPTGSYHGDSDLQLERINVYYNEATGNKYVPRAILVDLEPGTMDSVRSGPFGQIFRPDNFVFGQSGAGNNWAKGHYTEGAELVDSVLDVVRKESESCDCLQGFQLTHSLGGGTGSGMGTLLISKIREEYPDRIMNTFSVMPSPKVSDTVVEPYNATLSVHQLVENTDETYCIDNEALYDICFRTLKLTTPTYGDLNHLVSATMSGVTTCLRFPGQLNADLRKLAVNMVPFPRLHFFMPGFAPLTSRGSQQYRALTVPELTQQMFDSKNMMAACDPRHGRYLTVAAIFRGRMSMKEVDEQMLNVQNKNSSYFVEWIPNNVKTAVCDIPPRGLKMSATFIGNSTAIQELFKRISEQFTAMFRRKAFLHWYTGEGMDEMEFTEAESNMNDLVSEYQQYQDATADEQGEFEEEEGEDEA

SK-MEL-28 = assay: Inhibitory concentration value against human MEL-28 tumor cell line; format: functional, cell-based
HCT-116 = assay: Inhibitory concentration value against human colon carcinoma H-116 tumor cell line; format: functional, cell-based

| IC50 (A549) [µM] | IC50 (P388) [µM] | IC50 [1] [µM] | IC50 (HL-60) [µM] | IC50 (HT-29) [µM] | IC50 (Tubulin beta chain) [µM] | IC50 (SK-MEL-28) [µM] | IC50 (HCT-116) [µM] | Compound |
| --- | --- | --- | --- | --- | --- | --- | --- | --- |
| > 5 | > 5 | > 5 | > 5 | > 5 |  |  |  | COc1cc(/C=C\c2ccc3ccccc3c2)cc(NC(C)=O)c1OC |
| 0.04 | 0.04 | 0.04 | 3.62 | 3.62 | 16 | 0.04 | 0.04 | COc1ccc(/C=C\c2cc(OC)c3ccccc3c2)cc1O |
| 3.23 | 3.23 | 3.23 | 3.23 | 3.23 |  |  |  | COc1cc(/C=C/c2c[nH]c3ccccc23)cc(OC)c1OC |
| 2.15 |  | 0.46 | 3.15 | 6 | > 40 |  |  | COc1cc(/C=C/c2ccc3ccccc3c2)cc(N)c1OC |
| 1.92 | 1.92 |  |  | 1.92 | > 30 | 1.92 | 1.92 | COc1cccc(/C=C\c2ccc3ccccc3c2)c1 |
| > 5 | 5 | > 5 | 5 | > 5 |  |  |  | COc1c(N)cc(/C=C\c2ccc3ccccc3c2)cc1N |
| > 5 | > 5 | > 5 | > 5 | > 5 |  |  |  | COc1c([N+](=O)[O-])cc(/C=C\c2ccc3ccccc3c2)cc1[N+](=O)[O-] |
| 3.62 | 3.62 | 3.62 | 3.62 | 3.62 |  | 3.62 | 3.62 | COc1ccc(/C=C/c2cc(OC)c3ccccc3c2)cc1O |
| > 5 | > 5 | > 5 | > 5 | > 5 |  |  |  | COc1cc(/C=C/c2ccc(N(C)C)c([N+](=O)[O-])c2)cc(OC)c1OC |
| > 5 | > 5 | > 5 | 2.88 | > 5 |  |  |  | COc1cc(/C=C/c2ccc3ccccc3c2)cc(NC(C)=O)c1OC |
| > 5 | > 5 | > 5 | > 5 | > 5 |  |  |  | COc1c(N)cc(/C=C/c2ccc3ccccc3c2)cc1N |
| 0.47 |  | 0.25 | 0.38 | 0.28 | > 30 |  |  | COc1cc(/C=C/c2ccc3[nH]ccc3c2)cc(OC)c1OC |
| 0.45 | 0.45 |  |  | 0.45 | > 30 | 0.45 | 0.45 | COc1cc(/C=C\c2ccc3ccccc3c2)ccc1F |
| > 5 | > 5 | > 5 | > 5 | > 5 |  |  |  | CN(C)c1c([N+](=O)[O-])cc(/C=C/c2ccc3ccccc3c2)cc1[N+](=O)[O-] |
| > 5 | > 5 | > 5 | > 5 | > 5 |  |  |  | COc1cc(/C=C/c2cn(C(C)=O)c3ccccc23)cc(OC)c1OC |
| 3.09 | 3.09 | 3.09 | 3.09 | 3.09 |  |  |  | COc1cc(/C=C/c2cn(C)c3ccccc23)cc(OC)c1OC |
| 0.59 |  | 0.11 | 0.34 | 0.42 | 13 |  |  | COc1cc(/C=C\c2ccc3ccccc3c2)cc([N+](=O)[O-])c1OC |
| 0.004 |  | 0.003 | 0.003 | 0.004 | > 30 |  |  | COc1cc(/C=C\c2ccc(N(C)C)c(N)c2)cc(OC)c1OC |
| 1.64 | 1.64 | 1.64 | 0.33 | 0.33 |  |  |  | COc1cc(/C=C\c2ccc3ccccc3c2)cc(N)c1OC |
| > 5 | > 5 | > 5 | > 5 | > 5 |  |  |  | COc1c([N+](=O)[O-])cc(/C=C/c2ccc3ccccc3c2)cc1[N+](=O)[O-] |
| > 5 | > 5 | > 5 | > 5 | > 5 |  |  |  | COc1cc(/C=C/c2ccc3c(ccn3S(=O)(=O)c3ccccc3)c2)cc(OC)c1OC |
| > 10 |  | 3.2 | > 10 | > 10 | > 40 |  |  | COc1cc(/C=C/c2ccc3ccccc3c2)cc([N+](=O)[O-])c1OC |
| 1.52 | 1.52 | 1.52 | 1.52 | 0.3 |  |  |  | COc1cc(/C=C/c2ccc(N(C)C)c(N)c2)cc(OC)c1OC |
| > 5 | > 5 | > 5 | 2.75 | 2.75 |  |  |  | CN(C)c1c([N+](=O)[O-])cc(/C=C\c2ccc3ccccc3c2)cc1[N+](=O)[O-] |
| > 10 |  | 3.1 | > 10 | > 10 | 6 |  |  | COc1cc(/C=C\c2ccc3c(c2)c2ccccc2n3C)cc(OC)c1OC |
| 0.53 |  | 0.33 | 0.34 | 0.45 | > 30 |  |  | COc1cc(/C=C/c2ccc3c(c2)c2ccccc2n3C)cc(OC)c1OC |
| 3.59 | 3.59 | 3.59 | 3.59 | 3.59 |  | 3.59 | 3.59 | COc1cc2ccc(CCc3ccc4ccccc4c3)cc2cc1O |
| 0.39 |  | 0.034 | 0.035 | 0.035 | 25 |  |  | COc1cc(/C=C\c2ccc3[nH]ccc3c2)cc(OC)c1OC |
| 0.31 | 0.31 | 0.31 | 0.31 | 0.31 |  | 0.31 | 0.31 | COc1cc(CCc2ccc3ccccc3c2)cc(OC)c1OC |
| 0.003 | 0.003 | 0.003 | 0.016 | 0.032 | 3 | 0.003 | 0.016 | COc1ccc(/C=C\c2ccc3ccccc3c2)cc1O |

| Compound | IC50 (A549) [µM] | IC50 (P388) [µM] | IC50 [1] [µM] | IC50 (HL-60) [µM] | IC50 (HT-29) [µM] | IC50 (Tubulin beta chain) [µM] | IC50 (SK-MEL-28) [µM] | IC50 (HCT-116) [µM] |
| --- | --- | --- | --- | --- | --- | --- | --- | --- |
| COc1cc(/C=C\c2ccc3c(ccn3C)c2)cc(OC)c1OC |  |  | 0.25 | 0.33 |  | 2 |  |  |
| COc1cc(/C=C/c2ccc3c(ccn3C)c2)cc(OC)c1OC |  |  | 0.024 | 0.027 |  | 30 |  |  |
| COc1cc(/C=C/c2ccc3ccccc3c2)cc(OC)c1OC | 0.39 | 0.39 | 0.39 | 0.39 | 0.39 |  | 0.39 | 0.39 |
| COc1cc(/C=C\c2ccc3ccccc3c2)cc(OC)c1OC [NAPHTHYLCOMBRETASTATIN] |  | 0.02 | 0.02 | > 5 |  | 10 | 0.02 | 0.02 |
